# Tests used:
# Melanocortin receptor 4 = Melanocortin receptor 4 (Homo sapiens, UniProt P32245); format: cell membranes, Membrane; details: hek293; note: in other assays of this panel Not Active means under 50% inhibition at 10 µM
# Mu-type opioid receptor = Mu-type opioid receptor (Homo sapiens, UniProt P35372); experiment: DRUGMATRIX: Opiate mu (OP3, MOP) radioligand binding (ligand: [3H] Diprenorphine); format: cell membranes, CHO-K1, Membrane; details: Not Active = under 50% inhibition at 10 µM
# Histamine H2 receptor = Histamine H2 receptor (Homo sapiens, UniProt P25021); format: cell membranes, CHO-K1, Membrane; details: cho-k1; note: in other assays of this panel Not Active means under 50% inhibition at 10 µM
# [1] = DRUGMATRIX: Glutamate, AMPA radioligand binding (ligand: [3H] AMPA); format: cell membranes, Rattus norvegicus, Wistar, Cerebral cortex, Membrane; details: Not Active = under 50% inhibition at 10 µM
# [2] = biological target: Mitogen-activated protein kinase 3 (Homo sapiens, UniProt P27361); experiment: DRUGMATRIX: Protein Serine/Threonine Kinase, ERK1 enzyme inhibition (substrate: Myelin Basic Protein); set-up: species or system Escherichia coli; details: Not Active = under 50% inhibition at 10 µM
# [3] = biological target: T1, Muscarinic acetylcholine receptor M4 (Homo sapiens, UniProt P08173); format: cell membranes, CHO-K1, Membrane; note: in other assays of this panel Not Active means under 50% inhibition at 10 µM
# T1 sequence (P08173 whole entry): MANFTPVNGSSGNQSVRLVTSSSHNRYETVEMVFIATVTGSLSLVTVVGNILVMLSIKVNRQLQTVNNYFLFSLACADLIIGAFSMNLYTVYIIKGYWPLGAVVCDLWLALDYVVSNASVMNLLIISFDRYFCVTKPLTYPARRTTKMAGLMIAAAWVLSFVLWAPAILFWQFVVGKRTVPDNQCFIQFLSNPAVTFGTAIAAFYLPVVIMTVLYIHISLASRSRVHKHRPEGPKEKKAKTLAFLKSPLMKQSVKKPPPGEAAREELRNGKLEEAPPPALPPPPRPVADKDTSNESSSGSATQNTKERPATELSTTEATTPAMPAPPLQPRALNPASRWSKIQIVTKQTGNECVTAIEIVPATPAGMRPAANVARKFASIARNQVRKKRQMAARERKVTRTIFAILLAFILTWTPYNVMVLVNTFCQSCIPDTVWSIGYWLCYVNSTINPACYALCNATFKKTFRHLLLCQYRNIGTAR
# Sequence of Mitogen-activated protein kinase 3 (P27361 whole entry): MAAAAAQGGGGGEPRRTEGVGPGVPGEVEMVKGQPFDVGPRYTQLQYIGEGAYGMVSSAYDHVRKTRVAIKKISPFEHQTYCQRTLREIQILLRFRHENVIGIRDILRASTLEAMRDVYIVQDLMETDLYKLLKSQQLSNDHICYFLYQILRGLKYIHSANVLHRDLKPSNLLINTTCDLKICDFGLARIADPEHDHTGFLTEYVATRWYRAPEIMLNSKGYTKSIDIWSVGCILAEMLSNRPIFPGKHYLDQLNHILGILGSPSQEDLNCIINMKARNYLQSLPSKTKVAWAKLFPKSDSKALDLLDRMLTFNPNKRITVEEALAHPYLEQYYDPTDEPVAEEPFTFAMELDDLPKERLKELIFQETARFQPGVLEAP
# Sequence of Histamine H2 receptor (P25021 whole entry): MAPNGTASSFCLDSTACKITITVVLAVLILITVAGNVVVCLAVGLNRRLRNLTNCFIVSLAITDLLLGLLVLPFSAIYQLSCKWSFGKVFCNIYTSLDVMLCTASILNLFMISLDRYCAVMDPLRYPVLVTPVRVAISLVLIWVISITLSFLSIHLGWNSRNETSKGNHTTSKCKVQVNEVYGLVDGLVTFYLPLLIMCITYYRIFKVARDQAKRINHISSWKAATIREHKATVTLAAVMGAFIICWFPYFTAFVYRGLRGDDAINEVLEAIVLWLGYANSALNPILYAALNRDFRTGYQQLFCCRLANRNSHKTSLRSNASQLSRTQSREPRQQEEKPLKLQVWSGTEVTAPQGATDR
# Sequence of Mu-type opioid receptor (P35372 whole entry): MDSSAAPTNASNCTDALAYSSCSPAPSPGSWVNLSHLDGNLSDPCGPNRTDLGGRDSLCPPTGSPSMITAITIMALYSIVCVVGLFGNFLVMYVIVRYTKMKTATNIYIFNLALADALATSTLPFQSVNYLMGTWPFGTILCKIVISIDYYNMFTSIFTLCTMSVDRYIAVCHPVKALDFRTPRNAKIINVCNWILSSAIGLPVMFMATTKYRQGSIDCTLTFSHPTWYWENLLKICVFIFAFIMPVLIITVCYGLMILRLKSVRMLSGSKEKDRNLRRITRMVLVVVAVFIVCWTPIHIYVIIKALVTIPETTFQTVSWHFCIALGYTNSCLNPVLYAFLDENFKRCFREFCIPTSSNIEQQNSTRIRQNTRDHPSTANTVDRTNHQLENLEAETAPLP
# Sequence of Melanocortin receptor 4 (P32245 whole entry): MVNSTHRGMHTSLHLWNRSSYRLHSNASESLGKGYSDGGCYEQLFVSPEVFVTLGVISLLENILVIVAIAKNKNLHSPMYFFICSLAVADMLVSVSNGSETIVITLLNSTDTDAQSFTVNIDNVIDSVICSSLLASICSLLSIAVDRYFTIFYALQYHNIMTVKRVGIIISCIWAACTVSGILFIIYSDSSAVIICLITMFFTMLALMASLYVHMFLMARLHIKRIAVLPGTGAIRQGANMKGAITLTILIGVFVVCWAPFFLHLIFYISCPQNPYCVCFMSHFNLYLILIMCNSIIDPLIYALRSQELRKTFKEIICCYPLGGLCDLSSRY
Molecule,IC50 (Melanocortin receptor 4),IC50 (Mu-type opioid receptor; cho-k1),IC50 (Histamine H2 receptor),IC50 [1],Ki [1],IC50 [2],IC50 ([3]; cho-k1),Ki (Mu-type opioid receptor) [nM],IC50 (Mu-type opioid receptor; read-out: IC50) [nM],IC50 ([2]; read-out: IC50) [nM],IC50 ([3]; read-out: IC50) [nM],Ki ([3]; read-out: Ki) [nM],Ki (Melanocortin receptor 4),Ki (Histamine H2 receptor),Ki [2],Ki ([3]; cho-k1),IC50 (Melanocortin receptor 4; read-out: IC50) [nM],Ki (Melanocortin receptor 4; read-out: Ki) [nM]
CCOc1nc2cccc(C(=O)O)c2n1Cc1ccc(-c2ccccc2-c2nnn[nH]2)cc1,Not Active,Not Active,Not Active,Not Active,Not Active,Not Active,Not Active,,,,,,,,,,,
O=C(O)CCCc1cccs1,Not Active,Not Active,Not Active,Not Active,Not Active,Not Active,Not Active,,,,,,,,,,,
COc1ccccc1N,Not Active,Not Active,Not Active,Not Active,Not Active,Not Active,Not Active,,,,,,,,,,,
O=C(c1ccccc1F)N1CCC(Cc2ccccc2)CC1,Not Active,Not Active,Not Active,Not Active,Not Active,Not Active,Not Active,,,,,,,,,,,
Cc1c(O)cccc1C(=O)N[C@@H](CSc1ccccc1)[C@H](O)CN1C[C@H]2CCCC[C@H]2C[C@H]1C(=O)NC(C)(C)C,Not Active,,Not Active,Not Active,Not Active,,Not Active,5860,14400,22500,,,,,,,,
CC(O)COC[C@H]1O[C@@H]2O[C@H]3[C@H](O)[C@@H](O)[C@@H](O[C@H]4[C@H](O)[C@@H](O)[C@@H](O[C@H]5[C@H](O)[C@@H](O)[C@@H](O[C@H]6[C@H](O)[C@@H](O)[C@@H](O[C@H]7[C@H](O)[C@@H](O)[C@@H](O[C@H]8[C@H](O)[C@@H](O)[C@@H](O[C@H]1[C@H](O)[C@H]2O)O[C@@H]8COCC(C)O)O[C@@H]7COCC(C)O)O[C@@H]6COCC(C)O)O[C@@H]5COCC(C)O)O[C@@H]4COCC(C)O)O[C@@H]3COCC(C)O (stereo partly drawn) [2-HYDROXYPROPYL-BETA-CYCLODEXTRIN],Not Active,Not Active,Not Active,Not Active,Not Active,Not Active,Not Active,,,,,,,,,,,
NC(=O)c1cccc(N)c1 [3-AMINOBENZAMIDE],Not Active,Not Active,Not Active,Not Active,Not Active,Not Active,Not Active,,,,,,,,,,,
C[C@H]1O[C@H](O[C@H]2[C@H](O)[C@@H](O)[C@@H](O[C@H]3[C@H](O)[C@@H](O)C(O)O[C@@H]3CO)O[C@@H]2CO)[C@H](O)[C@@H](O)[C@@H]1N[C@H]1C=C(CO)[C@@H](O)[C@H](O)[C@H]1O (some centres undefined) [ACARBOSE],Not Active,Not Active,Not Active,Not Active,Not Active,Not Active,Not Active,,,,,,,,,,,
CC[C@H]1[C@@H]2C[C@H]3[C@@H]4N(C)c5ccccc5[C@]45C[C@@H]([C@@H]2[C@H]5O)N3[C@@H]1O [AJMALINE],Not Active,Not Active,Not Active,Not Active,Not Active,Not Active,Not Active,,,,,,,,,,,
NC12CC3CC(CC(C3)C1)C2 [AMANTADINE],Not Active,Not Active,Not Active,Not Active,Not Active,Not Active,Not Active,,,,,,,,,,,
NCCCNCCSP(=O)(O)O [AMIFOSTINE],Not Active,Not Active,Not Active,Not Active,Not Active,Not Active,Not Active,,,,,,,,,,,
CN(C)CCC=C1c2ccccc2CCc2ccccc21 [AMITRIPTYLINE],Not Active,Not Active,,Not Active,Not Active,Not Active,,,,,5.3,0.739,,,,,,
CC(=O)Oc1ccccc1C(=O)O [ASPIRIN],Not Active,Not Active,Not Active,Not Active,Not Active,Not Active,Not Active,,,,,,,,,,,
CC(C)c1c(C(=O)Nc2ccccc2)c(-c2ccccc2)c(-c2ccc(F)cc2)n1CC[C@@H](O)C[C@@H](O)CC(=O)O [ATORVASTATIN],Not Active,Not Active,Not Active,Not Active,Not Active,Not Active,Not Active,,,,,,,,,,,
CC(=O)OC[C@H]1O[C@@H](n2ncc(=O)[nH]c2=O)[C@H](OC(C)=O)[C@@H]1OC(C)=O [AZARIBINE],Not Active,Not Active,Not Active,Not Active,Not Active,Not Active,Not Active,,,,,,,,,,,
C[C@H]1[C@H](NC(=O)/C(=N\OC(C)(C)C(=O)O)c2csc(N)n2)C(=O)N1S(=O)(=O)O [AZTREONAM],Not Active,Not Active,Not Active,Not Active,Not Active,Not Active,Not Active,,,,,,,,,,,

Molecule,IC50 (Melanocortin receptor 4),IC50 (Mu-type opioid receptor; cho-k1),IC50 (Histamine H2 receptor),IC50 [1],Ki [1],IC50 [2],IC50 ([3]; cho-k1),Ki (Mu-type opioid receptor) [nM],IC50 (Mu-type opioid receptor; read-out: IC50) [nM],IC50 ([2]; read-out: IC50) [nM],IC50 ([3]; read-out: IC50) [nM],Ki ([3]; read-out: Ki) [nM],Ki (Melanocortin receptor 4),Ki (Histamine H2 receptor),Ki [2],Ki ([3]; cho-k1),IC50 (Melanocortin receptor 4; read-out: IC50) [nM],Ki (Melanocortin receptor 4; read-out: Ki) [nM]
O=C(O)CCNC(=O)c1ccc(/N=N/c2ccc(O)c(C(=O)O)c2)cc1 [BALSALAZIDE],Not Active,Not Active,Not Active,Not Active,Not Active,Not Active,Not Active,,,,,,,,,,,
COc1cc(OC)c(C(=O)CCCN2CCCC2)c(OC)c1 [BUFLOMEDIL],Not Active,Not Active,Not Active,Not Active,Not Active,Not Active,Not Active,,,,,,,,,,,
Cn1c(=O)c2c(ncn2C)n(C)c1=O [CAFFEINE],Not Active,Not Active,Not Active,Not Active,Not Active,Not Active,Not Active,,,,,,,,,,,
ClC(Cl)(Cl)Cl [CARBON TETRACHLORIDE],Not Active,Not Active,Not Active,Not Active,Not Active,Not Active,Not Active,,,,,,,,,,,
CO/N=C(\C(=O)N[C@@H]1C(=O)N2C(C(=O)O)=C(COC(C)=O)CS[C@H]12)c1csc(N)n1 [CEFOTAXIME],Not Active,Not Active,Not Active,Not Active,Not Active,,Not Active,,,,,,,,,,,
CNC1=Nc2ccc(Cl)cc2C(c2ccccc2)=[N+]([O-])C1 [CHLORDIAZEPOXIDE],Not Active,Not Active,Not Active,Not Active,Not Active,Not Active,Not Active,,,,,,,,,,,
Cc1cc(O)cc(C)c1Cl [CHLOROXYLENOL],Not Active,Not Active,Not Active,Not Active,Not Active,Not Active,Not Active,,,,,,,,,,,
CCCNC(=O)NS(=O)(=O)c1ccc(Cl)cc1 [CHLORPROPAMIDE],Not Active,Not Active,Not Active,Not Active,Not Active,Not Active,Not Active,,,,,,,,,,,
NS(=O)(=O)c1cc(C2(O)NC(=O)c3ccccc32)ccc1Cl (centres undefined) [CHLORTHALIDONE],Not Active,Not Active,Not Active,Not Active,Not Active,Not Active,Not Active,,,,,,,,,,,
O=C(O)CC(O)(CC(=O)O)C(=O)O [CITRIC ACID],Not Active,Not Active,Not Active,Not Active,Not Active,Not Active,Not Active,,,,,,,,,,,
CC(C)NCC(O)c1ccccc1Cl (centres undefined) [CLORPRENALINE],Not Active,Not Active,Not Active,Not Active,Not Active,Not Active,Not Active,,,,,,,,,,,
CN1CCN(C(c2ccccc2)c2ccccc2)CC1 [CYCLIZINE],Not Active,Not Active,Not Active,Not Active,Not Active,Not Active,,,,,852,119,,,,,,
C[C@]12CC[C@H]3[C@@H](CCC4=CC(=O)CC[C@@H]43)[C@@H]1CC[C@@H]2O [NANDROLONE],Not Active,,Not Active,Not Active,Not Active,Not Active,Not Active,,,,,,,,,,,
C[C@@H]1O[C@@H](O[C@H]2C[C@@H](O)[C@]3(CO)[C@H]4[C@H](O)C[C@]5(C)[C@@H](C6=CC(=O)OC6)CC[C@]5(O)[C@@H]4CC[C@]3(O)C2)[C@H](O)[C@H](O)[C@H]1O [OUABAIN],Not Active,,Not Active,Not Active,Not Active,Not Active,Not Active,,,,,,,,,,,
COBALTOUS CHLORIDE,Not Active,,Not Active,Not Active,Not Active,Not Active,Not Active,,,,,,Not Active,Not Active,Not Active,Not Active,,
COLISTIN,,,Not Active,Not Active,Not Active,Not Active,Not Active,,,,,,,Not Active,Not Active,Not Active,841,809
